Experimental data: patent US20230365577A1, “Photodynamic Therapy and Diagnosis” (RMW CHO Group Limited, priority 2020, published 2023)
Several values for one entry are separate records, joined by “and”; a condition that tells them apart may be missing. Equal values may be shown once. Where a name gives a salt, the structure may show the parent alone. Read-outs that look alike come from different tables or passages of the source.

Experiments:
[1] = Acute toxicity after intraperitoneal injection; assay type: in vivo, C57BL/6 mice; conditions: 5 mg/kg intraperitoneal, 1% PVP in PBS + 20 mM HEPES, observed 30 mins
Method: To assess acute toxicity, phyllochlorin or chlorin e4 disodium (each prepared with 1% PVP in PBS+20 mM HEPES) were administered at a dose of 5 mg/kg to C57BL/6 mice by intraperitoneal injection.

[2] = test system: SKOV3 ovarian cancer cells; test: Inherent cytotoxicity (dark toxicity) in SKOV3 cells (AlamarBlue viability); assay type: cell-based, Human; conditions: for Concentration at which cells remained >80% viable (dark toxicity) / Concentration at which cells retained >80% viability (dark toxicity): SKOV3, 24 hours; for Concentration at which cells remained >80% viable (dark toxicity): absence of PVP; for Concentration at which cells retained >80% viability (dark toxicity): with addition of PVP
Method: (§1) Human ovarian cancer cell line SKOV3 (ATCC #HTB-77) was maintained in Dulbecco's Modified Eagle Medium/Nutrient Mixture F-12 (DMEM/F-12), supplemented with 10% v/v Fetal Bovine Serum, 100 U/mL penicillin and 100 µg/mL streptomycin. Monolayer cultures were grown in a humidified incubator at 37° C. with 5% CO2.
(§2) For in vitro experiments, photosensitizers (stock solution 5.5 mM in 100% DMSO) were diluted in cell culture media (Dulbecco's Modified Eagle Medium/Nutrient Mixture F-12) supplemented with 10% v/v Fetal Bovine Serum, 100 U/mL penicillin, 100 µg/mL streptomycin and 10% w/v Kollidon-12. Once cells had reached ˜80% confluence, spent media was replaced with media containing photosensitizer and cells were incubated for the desired period of time to allow photosensitizer uptake.
SKOV3 cells were seeded in 96-well black wall plates (Greiner #655090) at a cell density of 5000 cells in 100 μl culture medium per well. On reaching ˜60% confluence, media was aspirated and replaced with fresh media containing the relevant phyllochlorin analogue from 0-100 μM in DMSO. Cells were incubated for a further 24 hours, allowing uptake of phyllochlorin analogues.
To test for inherent cytotoxicity (i.e. “dark toxicity”) of the phyllochlorin analogue the culture media was replaced after 24 hours with fresh media containing 10% (v/v) AlamarBlue Cell Viability Reagent (ThermoFisher) and cells incubated at 37° C. for 6 hours. Untreated cells were used as a control. Fluorescence (Ex 555 nm/Em 596 nm) was measured using a Cytation 3 Multimode Plate Reader (Biotek), and cytotoxicity assessed according to the % viable cells remaining. All measurements were made in quadruplicate.
(§3) For comparative purposes, phyllochlorin analogues were tested and compared against both chlorin e4 disodium and Talaporfin sodium, a clinically approved photosensitizer used in the photodynamic treatment of lung cancers. Phototoxicity IC90 values and dark toxicity IC10 values were calculated using a log[inhibitor]-vs normalized response dose curve with variable slope, using the formula Y=100/(1+(IC90/X)^HillSlope (phototoxicity IC90) or Y=100/(1+(IC10/X)^HillSlope (dark toxicity IC10).

[3] = test system: SKOV3 ovarian cancer cells; test: Phototoxicity in SKOV3 cells (652 nm laser, AlamarBlue viability); assay type: cell-based, Human; conditions: for IC50: SKOV3, 652 nm laser, estimated from fitted curves; for IC90: SKOV3, 24 h uptake, 652 nm laser 50 mW/cm2 5 mins (15 J/cm2), viability 24 h later, read-out: Cellular Toxicity: Phototoxicity IC90
Method: as §1, §2
SKOV3 cells were seeded in 96-well black wall plates (Greiner #655090) at a cell density of 5000 cells in 100 μl culture medium per well. On reaching ˜60% confluence, so media was aspirated and replaced with fresh media containing the relevant phyllochlorin analogue from 0-100 μM in DMSO. Cells were incubated for a further 24 hours, allowing uptake of phyllochlorin analogues.
To test for phototoxicity, cells incubated with phyllochlorin analogues (0-10 μM in DMSO) had culture media replaced after 24 hours (as above) and were then exposed to a 652 nm laser (Invion) with laser density at 50 mW/cm^2 for 5 mins (total 15 J/cm^2). Following activation, cells were cultured for a further 24 hours. Media was then replaced with fresh media containing AlamarBlue, and % viable cells remaining assessed as above. Controls included cells treated with phyllochlorin analogues but not activated by laser light; cells without phyllochlorin analogue treatment but with laser light; and untreated controls. All measurements were made in quadruplicate.
as §3

[4] = Singlet oxygen (1O2) production rate; assay type: physicochemical
From the text: The production of singlet oxygen (^1O2), cellular phototoxicity and light-independent cytotoxicity (“dark toxicity”) of a number of phyllochlorin analogues were compared against chlorin e4 disodium and Talaporfin sodium (mono-L-aspartyl chlorin e6), the active ingredient of Laserphyrin™.

SKOV3 cells = test: Cellular uptake and retention (intrinsic fluorescence); assay type: cell-based, Human; conditions: for Uptake and clearance, comparison of the two salt forms: SKOV3, 24 hours uptake then 24 hours clearance
Method: Based on the increased phototoxicity of compound 1c versus compound 1, it was assessed whether this salt substitution alters cellular uptake or retention over time. SKOV3 cells were incubated for up 24 hours in the presence of either compound 1 or 1c (as previously described). At defined time intervals (FIG. 5) the media was aspirated, replaced with sterile PBS, and cells imaged for fluorescence (Ex 405 nm/Em 660 nm) using a Cytation 3 Multimode Plate Reader (Biotek). After 24 hours the media was aspirated, replaced with fresh media and the loss of cellular fluorescence similarly monitored. All images (minimum 100 cells per time point) were then quantitatively analysed (Gen5.0 software) and an average fluorescence/cell/time point determined. Average fluorescence measurements were normalised against the maximum average value measured for each photosensitizer, and plotted as percent total fluorescence (mean±SD) overtime.
The uptake and retention of compounds 1 and 2 was compared in SKOV3 cancer cells over a 48 hour period. SKOV3 cells were incubated for up 24 hours in the presence of either compound 1 or 2 (as previously described). At defined time intervals (FIG. 6) the media was aspirated, replaced with sterile PBS, and cells imaged for fluorescence (Ex 405 nm/Em 660 nm) using a Cytation 3 Multimode Plate Reader (Biotek). After 24 hours the media was aspirated, replaced with fresh media and the loss of cellular fluorescence similarly monitored. All images (minimum 100 cells per time point) were then quantitatively analysed (Gen5.0 software) and an average fluorescence/cell/time point determined. Average fluorescence measurements were normalised against the maximum average value measured for each photosensitizer, and plotted as percent total fluorescence (mean±SD) over time.
Phyllochlorin was functionalised with saccharidyl groups (glucose or mannose) using various configurations, and the effects on rate of uptake by cells assessed over a 4 hour incubation period as above. The rate of uptake of saccharidyl-conjugated phyllochlorin analogues exceeded that of unconjugated compound 2 (examples shown in FIG. 7); after 2 hours, saccharidyl-conjugated phyllochlorin analogues (compounds 6, 8 and 17) had reached 57-68% of their maximal uptake compared to 37% for compound 2 (FIG. 7A). By 4 hours total uptake was similar, and there was no apparent difference in cellular distribution between glucose (compounds 6 and 8) and mannose (compound 17) linked species (FIG. 7B).

[5] = Estimated pKa of the carboxylic acid; assay type: physicochemical
From the text: As PBS buffer (pH 7.4) is used in the experiments and the carboxylic acid in phyllochlorin (and the same carboxy group in other related chlorins) is estimated to have a pKa of less than 5, phyllochlorin in the PBS buffer will exist predominantly as the sodium and potassium salts with very little to no free acid.

[6] = Solubility and absorbance maxima (absorbance spectra in DMSO/PBS, with or without PVP); assay type: physicochemical
Method: Absorbance maxima (660±2 nm for phyllochlorin) were used as a surrogate measure of solubility. The relevant phyllochlorin analogue was diluted to 50 μM in PBS (phosphate buffered saline) solutions containing decreasing amounts of DMSO from 100% to 0%.
Where required, polyvinylpyrrolidone (K30) was added to a final concentration of 1% w/v. Absorbance was measured using a Cytation 3 Multimode Plate Reader (Biotek) in spectral scanning mode, with spectra captured between 500-800 nm in 2 nm increments. Equivalent blank solutions were also measured and subtracted accordingly. Each spectrum was normalized to have a minimum signal of 0, and a maximum signal in pure DMSO solution (the most soluble state) of 100%.
The solubility of phyllochlorin was assessed in solutions containing DMSO as an organic solvent. Phyllochlorin (50 μM final concentration) was resuspended in 100% DMSO to fully dissolve the phyllochlorin. With phyllochlorin concentrations maintained at 50 μM the % DMSO was decreased in a stepwise manner from 100% to 0%. All solutions were mixed by vortexing, then centrifuged for 2 mins to pellet any insoluble material. A 150 μl aliquot was transferred to individual wells of a 96-well clear microplate, and absorbance spectra collected between 500-800 nm in 2 nm increments. Equivalent solutions containing decreasing % DMSO were used to control for background.

[7] = SKOV3, 24 h incubation, no light

SMILES | Side effects (clinical signs of acute toxicity) [1] | Concentration at which cells remained >80% viable (dark toxicity) [2] | Concentration at which cells retained >80% viability (dark toxicity) [2] | Cellular Toxicity: Dark toxicity IC10 [2, 7] [nM] | IC50 ([3]; absence of PVP) | IC50 ([3]; with addition of PVP) [nM] | IC90 [3] [nM] | Singlet Oxygen Production (slope) 1O2 [4] | Uptake and clearance, comparison of the two salt forms (SKOV3 cells) | Cellular Toxicity: Dark toxicity IC10 ([2]; human, 24 h) [nM] | also measured
C=Cc1c(C)c2cc3nc(c(C)c4[nH]c(cc5nc(cc1[nH]2)C(C)=C5CC)c(C)c4C(=O)O)[C@@H](CCC(=O)O)[C@@H]3C [Chlorin e4 disodium, chlorin e4 disodium, reference compound] | No side effects were noted | up to 80 μM | 100 µM | 40230 | 4530 nM | 1350 | 21300 | 998.2 | – | – | –
C=Cc1c(C)c2cc3nc(c(C)c4cc(C)c(cc5nc(cc1[nH]2)C(C)=C5CC)[nH]4)[C@@H](CCC(=O)O)[C@@H]3C [Compound 1, phyllochlorin sodium salt] | – | – | – | – | – | – | – | – | no significant difference | 21960 | Fluorescence lost from cells (SKOV3 cells; SKOV3, within 4 hours after replacing media): 80%; IC90 ([3]; sodium salt): 350 nM; Singlet Oxygen Production (slope) 1O2 ([4]; sodium salt): 1445.0
C=Cc1c(C)c2cc3nc(c(C)c4cc(C)c(cc5nc(cc1[nH]2)C(C)=C5CC)[nH]4)[C@@H](CCC(=O)O)[C@@H]3C [Compound 1c, phyllochlorin choline salt] | – | – | – | – | – | – | 210 | 1229.0 | no significant difference | 58010 | –
C=Cc1c(C)c2cc3nc(c(C)c4cc(C)c(cc5nc(cc1[nH]2)C(C)=C5CC)[nH]4)[C@@H](CCC(=O)OC)[C@@H]3C [Compound 2, phyllochlorin methyl ester] | – | – | – | – | – | – | – | 2141.0 | – | 39620 | Percent of maximal uptake (SKOV3 cells; SKOV3, after 2 hours incubation): 37%; Compound remaining within cells (SKOV3 cells; SKOV3, after 24 hours clearance): > 50%; IC90 ([3]; Homo sapiens, SK-OV-3, light or radiation study): 260 nM
C=CC1=C(C)c2cc3nc(c(C)c4cc(C)c(cc5[nH]c(cc1n2)c(C)c5CC)[nH]4)[C@@H](CCC(=O)O)[C@@H]3C [Phyllochlorin free acid, phyllochlorin free acid] | No side effects were noted | 10 µM | up to 25 μM | 13810 | 63.1 nM and 60 nM | 53.9 | 290 | 1335.5 | – | – | pKa of the carboxylic acid [5]: less than 5; Solubility ([6]; 50 μM, 1% w/v PVP, absorbance as surrogate): remained soluble in aqueous solvent (without DMSO); Absorbance maxima ([6]; aqueous solvent, single broad peak): 688±2 nm; Absorbance maxima ([6]; fully solubilized in organic solvent (75% DMSO and above)): 660±2 nm; Times more potent as a phototoxic agent than chlorin e4 disodium salt ([3]; ovarian cancer cells, head to head, without PVP): ~75 times
